Entries after “also recorded” stand apart in the source; their conditions may differ.
Columns and labels:
[1] = system: neutrophils; assay: Nuclear area and nuclear morphology (perimeter vs. Heywood circularity factor) of activated neutrophils, Sytox Green staining, automated microscopy; assay type: cell-based, Human
Description: During NET formation there are discrete changes in nuclear size and shape. According to the invention four distinct nuclear morphologies were defined (Fig. 1) (i) lobulated, (ii) delobulated, (iii) diffused NETs and (iv) spread NETs. […] The nuclear morphology, i.e. the morphology of the nuclear DNA was analyzed in more detail by plotting the perimeter vs. the Heywood circularity factor.
In contrast, most nuclei of neutrophils activated for 240 min, had diffused nuclei, or spread NETs that could be measured by their large perimeter and low Heywood circularity factor (Fig. 3b).
For nuclear size and shape, neutrophils were activated with PMA for 240 min, fixed with PFA (2%), permeabilized with Triton X100 (0.1%) and stained with Sytox Green. The four distinct nuclear morphologies during the progression to NET formation are lobulated, delobulated or diffused NETs and spread NETs (Fig.1). Bar=10 µm
Neutrophils were activated with PMA (40nM). Fifteen min after activation the nuclei were homogenous and smaller than 100 µm^2 in area while the nuclei of activated neutrophils were heteregenous and between 150 and more than 350 µm^2 (Figs. 3). Each dot in Figs. 3 (Dot plot of nuclei analyzed for perimeter vs. Heywood circularity factor) represents a nucleus. Gates were set to distinguish between lobulated, delobulated, diffused NETs and spread NETs.
In Fig. 3a fifteen min after activation, more than 95% of the nuclei were either lobulated or delobulated. […] The images were generated by an automated microscopy system and analyzed by image analysis software Scan ^R.

[2] = system: neutrophils; assay: Quantification of cell viability with Sytox Green, fluorometer; assay type: cell-based, Human; conditions: PMA (40 nM) for 240 min, Sytox Green (2µM)
Description: Neutrophils were activated with PMA (40 nM) for 15 min and 240 min, stained with the vital dye Sytox Green (2µM) and analyzed with a fluorometer. […] Different numbers of neutrophils per well were plated and activated with PMA for 240 min or incubated with the non ionic detergent NP-40.

CCCCCCCCCCCCCC(=O)O[C@@H]1[C@@H](C)[C@@]2(O)[C@@H](C=C(CO)C[C@]3(O)C(=O)C(C)=C[C@@H]23)[C@@H]2C(C)(C)[C@]12OC(C)=O [PMA, phorbol-12-myristate-13-acetate]
nuclei either diffused or already made NETs ([1]; 240 min after activation with PMA (40nM)): more than 95%
nuclei either lobulated or delobulated ([1]; fifteen min after activation with PMA (40nM)): more than 95%
nuclear area (mean) ([1]; neutrophils activated with PMA (40 nM) for 240 min, SD: 109µm^2, n: 2000): 244 µm^2
cell death (Sytox Green fluorescence) [2]: fluorescent, indicating cell death; also recorded: most cells die after activation
